Results on 23 compounds are retold here after patent US7105558B2, “Gastrin and cholecystokinin receptor lignads (iv)” (The James Black Foundation Limited, priority 2000, dated 2006).

Structures are written as SMILES.

The target in this assay is T1, gastrin (CCK2) receptors (Rattus norvegicus, UniProt P30553).
T1 construct: The stomach was excised and flushed with ca. 1 ml of unbuffered physiological saline solution; from tissue; host or cells: isolated whole stomach of immature rats (33-50 g, ca. 21 days old)
T1 sequence (P30553 1-452): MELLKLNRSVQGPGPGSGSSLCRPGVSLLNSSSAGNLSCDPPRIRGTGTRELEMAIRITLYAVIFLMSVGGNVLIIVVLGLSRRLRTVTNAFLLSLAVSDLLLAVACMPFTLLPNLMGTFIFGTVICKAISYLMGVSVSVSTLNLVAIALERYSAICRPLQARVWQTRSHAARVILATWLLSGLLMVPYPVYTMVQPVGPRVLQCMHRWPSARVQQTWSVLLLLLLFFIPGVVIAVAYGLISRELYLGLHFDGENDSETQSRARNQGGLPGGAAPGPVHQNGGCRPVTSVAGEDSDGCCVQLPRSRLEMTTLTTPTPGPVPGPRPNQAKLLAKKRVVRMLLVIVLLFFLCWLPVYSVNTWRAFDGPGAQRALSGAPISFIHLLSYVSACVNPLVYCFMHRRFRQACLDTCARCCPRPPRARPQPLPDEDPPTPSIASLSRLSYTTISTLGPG
Kind of assay: immature rat stomach assay for gastrin (CCK2) antagonist activity (pentagastrin-stimulated acid secretion). To be noted: isolated immature rat stomach, antagonism of pentagastrin dose-response curves, 60 min incubation, tested as N-methyl D-glucamine salts; for Kb: read-out: Rat stomach pKB (converted). The procedure:
The compounds of the examples were tested for gastrin (CCK2) antagonist activity in an immature rat stomach assay. The procedure was as follows:
The oesophagus of immature rats (33-50 g, ca. 21 days old) was ligated at the level of the cardiac sphincter and the duodenal sphincter was cannulated. The stomach was excised and flushed with ca. 1 ml of unbuffered physiological saline solution. The fundus was punctured and cannulated. A further 4-5 ml of unbuffered solution was flushed through the stomach to ensure the preparation was not leaking. The stomach was lowered into a jacketed organ bath containing 40 ml of buffered solution containing 3×10^−8 M 5-methylfurmethide, maintained at 37° and gassed vigorously with 95% O2/5% CO2. The stomach was continuously perfused at a rate of 1 ml min^−1 with unbuffered solution gassed with 100% O2 with the perfusate passing over an internally referenced pH-electrode fixed 12 cm above the stomach.
After 120 min of stabilisation the drugs were added directly to the serosal solution in the organ bath and after a further 60 min cumulative pentagastrin dose-response curves were started. Changes in acid secretion were monitored and the curves analysed according to Black et al, Br. J. Pharmacol., 1985, 86, 581.

As for `Cc1ccccc1-n1nc(COC23CC4CC(CC(C4)C2)C3)c(C(=O)Nc2cccc(C(=O)O)c2)n1` [Example 1, 3-[[5-(Adamantan-1-yloxymethyl)-2-(2-methyl-phenyl)-2H-[1,2,3]triazole-4-carbonyl]-amino]-benzoic acid], the Kb was 43.7 nM. Regarding `O=C(O)c1cccc(NC(=O)c2nn(C3CCCCC3)nc2COC23CC4CC(CC(C4)C2)C3)c1` [Example 2, 3-[[5-(Adamantan-1-yloxymethyl)-2-cyclohexyl-2H-[1,2,3]triazole-4-carbonyl]-amino]-benzoic acid], the Kb is 47.9 nM. The same measure, in the same setting: as for `O=C(O)c1cccc(NC(=O)c2nn(-c3c(Cl)cccc3Cl)nc2COC23CC4CC(CC(C4)C2)C3)c1` [Example 3, 3-[[5-(Adamantan-1-yloxymethyl)-2-(2,6-dichlorophenyl)-2H-[1,2,3]triazole-4-carbonyl]-amino]-benzoic acid], the figure is 13.2 nM; as for `O=C(O)c1cccc(NC(=O)c2nn(-c3c(Cl)cc(Cl)cc3Cl)nc2COC23CC4CC(CC(C4)C2)C3)c1` [Example 4, 3-[[5-(Adamantan-1-yloxymethyl)-2-(2,4,6-trichlorophenyl)-2H-[1,2,3]triazole-4-carbonyl]-amino]-benzoic acid], 191 nM. With `O=C(O)c1cccc(NC(=O)c2nn(-c3ccccc3Cl)nc2COC23CC4CC(CC(C4)C2)C3)c1` [Example 5, 3-[[5-(Adamantan-1-yloxymethyl)-2-(2-chloro-phenyl)-2H-[1,2,3]triazole-4-carbonyl]-amino]-benzoic acid], the Kb was 30.9 nM. On to `O=C(O)c1cccc(NC(=O)c2nnn(-c3ccccc3Cl)c2COC23CC4CC(CC(C4)C2)C3)c1` [Example 6, 3-[[5-(Adamantan-1-yloxymethyl)-1-(2-chloro-phenyl)-1H-[1,2,3]triazole-4-carbonyl]-amino]-benzoic acid], for which the Kb is 93.3 nM. With `O=C(O)c1cccc(NC(=O)c2nn(-c3ccccc3C(F)(F)F)nc2COC23CC4CC(CC(C4)C2)C3)c1` [Example 7, 3-[[5-(Adamantan-1-yloxymethyl)-2-(2-trifluoromethyl-phenyl)-2H-[1,2,3]triazole-4-carbonyl]-amino]-benzoic acid], the Kb was 67.6 nM. Turning to `CCc1ccccc1-n1nc(COC23CC4CC(CC(C4)C2)C3)c(C(=O)Nc2cccc(C(=O)O)c2)n1` [Example 8, 3-[[5-(Adamantan-1-yloxymethyl)-2-(2-ethyl-phenyl)-2H-[1,2,3]triazole-4-carbonyl]-amino]-benzoic acid], the Kb was 24 nM.

With `CC(C)(C)n1nc(COC23CC4CC(CC(C4)C2)C3)c(C(=O)Nc2cccc(C(=O)O)c2)n1` [Example 9, 3-[[5-(Adamantan-1-yloxymethyl)-2-tert-butyl-2H-[1,2,3]triazole-4-carbonyl]-amino]-benzoic acid], the Kb is 631 nM. Take `COc1ccccc1-n1nc(COC23CC4CC(CC(C4)C2)C3)c(C(=O)Nc2cccc(C(=O)O)c2)n1` [Example 10, 3-[[5-(Adamantan-1-yloxymethyl)-2-(2-methoxy-phenyl)-2H-[1,2,3]triazole-4-carbonyl]amino]-benzoic acid]: the Kb was 41.7 nM. In the case of `O=C(O)c1cccc(NC(=O)c2nn(C3CC4CCC3C4)nc2COC23CC4CC(CC(C4)C2)C3)c1` (stereo not drawn) [Example 11, Endo-3-[[5-(Adamantan-1-yloxymethyl)-2-bicyclo[2.2.1]hept-2-yl-2H-[1,2,3]triazole-4-carbonyl]-amino]-benzoic acid], the “Rat stomach pKB” value is 8.37 ± 0.22. Regarding `O=C(O)c1cccc(NC(=O)c2nn(-c3ccccc3F)nc2COC23CC4CC(CC(C4)C2)C3)c1` [Example 12, 3-[[5-(Adamantan-1-yloxymethyl)-2-(2-fluoro-phenyl)-2H-[1,2,3]triazole-4-carbonyl]-amino]-benzoic acid], the Kb was 174 nM.

With `O=C(O)c1cccc(NC(=O)c2nn(-c3ccccc3Br)nc2COC23CC4CC(CC(C4)C2)C3)c1` [Example 13, 3-[[5-(Adamantan-1-yloxymethyl)-2-(2-bromo-phenyl)-2H-[1,2,3]triazole-4-carbonyl]-amino]-benzoic acid], the Kb was 95.5 nM. Regarding `O=C(O)c1cccc(NC(=O)c2nnn(-c3ccccc3Br)c2COC23CC4CC(CC(C4)C2)C3)c1` [Example 14, 3-[[5-(Adamantan-1-yloxymethyl)-1-(2-bromo-phenyl)-1H-[1,2,3]triazole-4-carbonyl]-amino]-benzoic acid], the Kb was 229 nM. In the case of `O=C(O)c1cccc(NC(=O)c2nn(C3CCCCCC3)nc2COC23CC4CC(CC(C4)C2)C3)c1` [Example 15, 3-[[5-(Adamantan-1-yloxymethyl)-2-cycloheptyl-2H-[1,2,3]triazole-4-carbonyl]-amino]-benzoic acid], the Kb was 13.5 nM. As to `O=C(O)c1cccc(NC(=O)c2nn(C3C4CC5CC(C4)CC3C5)nc2COC23CC4CC(CC(C4)C2)C3)c1` (centres unmarked) [Example 16, 3-[[2-Adamantan-2-yl-5-(Adamantan-1-yloxymethyl)-2H-[1,2,3]triazole-4-carbonyl]-amino]-benzoic acid.], the “Rat stomach pKB” value was determined as 6.82 ± 0.17.

As to `CC(C)c1ccccc1-n1nc(COC23CC4CC(CC(C4)C2)C3)c(C(=O)Nc2cccc(C(=O)O)c2)n1` [Example 17, 3-[[5-(Adamantan-1-yloxymethyl)-2-(2-isopropyl-phenyl)-2H-[1,2,3]triazole-4-carbonyl]-amino]-benzoic acid], the Kb was 263 nM. Take `O=C(O)c1cccc(NC(=O)c2nn(-c3cccc4ccccc34)nc2COC23CC4CC(CC(C4)C2)C3)c1` [Example 18, 3-[[5-(Adamantan-1-yloxymethyl)-2-naphthalen-1-yl-2H-[1,2,3]triazole-4-carbonyl]-amino]-benzoic acid]: the Kb was 1510 nM.

For `Cc1cccc(-n2nc(COC34CC5CC(CC(C5)C3)C4)c(C(=O)Nc3cccc(C(=O)O)c3)n2)c1C` [Example 19, 3-[[5-(Adamantan-1-yloxymethyl)-2-(2,3-dimethyl-phenyl)-2H-[1,2,3]triazole-4-carbonyl]-amino]-benzoic acid], the Kb is 74.1 nM.

On to `O=C(O)c1cccc(NC(=O)c2nn(-c3ccccc3)nc2COC23CC4CC(CC(C4)C2)C3)c1` [Example 20, 3-[[5-(Adamantan-1-yloxymethyl)-2-phenyl-2H-[1,2,3]triazole-4-carbonyl]-amino]-benzoic acid], for which the Kb was 2090 nM. As for `O=C(O)c1cccc(NC(=O)c2nn(-c3ccccc3-c3ccccc3)nc2COC23CC4CC(CC(C4)C2)C3)c1` [Example 21, 3-[[5-(Adamantan-1-yloxymethyl)-2-(biphenyl-2-yl)-2H-[1,2,3]triazole-4-carbonyl]-amino]-benzoic acid], the Kb was 240 nM.

Consider `Cc1ccc(C)c(-n2nc(COC34CC5CC(CC(C5)C3)C4)c(C(=O)Nc3cccc(C(=O)O)c3)n2)c1` [Example 22, 3-[[5-(Adamantan-1-yloxymethyl)-2-(2,5-dimethyl-phenyl)-2H-[1,2,3]triazole-4-carbonyl]-amino]-benzoic acid], for which the Kb was 282 nM. For the compound `O=C(O)c1cccc(NC(=O)c2nn(-c3cc(Cl)ccc3Cl)nc2COC23CC4CC(CC(C4)C2)C3)c1` [Example 23, 3-[[5-(Adamantan-1-yloxymethyl)-2-(2,5-dichloro-phenyl)-2H-[1,2,3]triazole-4-carbonyl]-amino]-benzoic acid], the Kb is 151 nM.
